Assay results published in patent US4267189A, “Method of use and composition for 1,3-dihydro-3-(2-hydroxy-2-methylpropyl)-2H-isoindol-1-one” (American Home Products Corporation, priority 1979, dated 1981).

Key:
[1] = test system: Oxotremorine-Induced Effects; assay: Anticholinergic activity: antagonism of oxotremorine-induced effects (temperature, tremor, salivation, lacrimation); type: in vivo, mice; settings: for Lacrimation (L) score / Salivation (S) score / Tremor (T) score: 2=strong, 1=weak, 0=none
Experimental: Anticholinergic activity was examined in vivo by determining the ability of the compound to antagonize oxotremorine-induced effects according to the method described by P. S. J. Spencer, Life Sci., 5, 1015 (1965). […] Rectal temperature was measured with a YSI telethermometer 402 physiological probe before administration of test compounds and oxotremorine and at 15 and 30 min after oxotremorine. At the same time the degree of tremor, salivation and lacrimation was scored as follows: 2=strong; 1=weak; 0=none.

[2] = test system: Indomethacin-Induced Ulcer Formation; assay: Indomethacin-induced ulcer formation; type: in vivo, rat (female albino Sprague-Dawley); settings: for Ulcers Formed: mean ± S.E.; for ED50: Rattus norvegicus, indomethacin-induced ulcers, oral, doses in mg/kg
Experimental: The method utilized for the production and evaluation of indomethacin-induced ulcer formation was essentially as described by Y. H. Lee et al., Arch. Int. Pharmacodyn. […] Indomethacin (20 mg/kg, i.p.) was given, the animals sacrificed by cervical dislocation 5 hr later and the number of ulcers present in the glandular portion of the stomach determined. The test compound was administered orally (0.2 ml) 1 hr before the indomethacin. The vehicle employed for the administrations was water containing Tween 80 (1 drop per 7 ml). There were 12-32 animals per group.

[3] = test system: Cold-Restraint-Induced Ulcer Formation; assay: Cold-restraint-induced ulcer formation; type: in vivo, rat (male albino Sprague-Dawley); settings: for Ulcers Formed: mean ± S.E.; for ED50: Rattus norvegicus, cold-restraint ulcers, oral, doses in mg/kg
Excerpt: Int. Pharmacodyn. […] Exp. Biol. Med., 113, 998 (1963) as modified by E. C. Senay and R. J. Levine Proc. Soc. Exp. Biol. Med., 124, 1221 (1967) when administered orally or parenterally (see Examples 3 and 4).
To assess the effects of the test compound on the development of cold-restraint-induced gastric lesions, the method of D. A. Brodie and L. S. Valitski Proc. Soc. Exp. Biol. Med., 113, 998 (1963) as modified by E. C. Senay and R. J. Levine Proc. Soc. Exp. Biol. Med., 124, 1221 (1967) was used. Food was withheld from male albino rats (165-175 g, Sprague-Dawley, Canadian Breeding Laboratories) for 24 hr but water was freely available. The test compound was administered orally (0.2 ml) to the animals (8-24 per group) 30 min before placing the animals into restrainers, the restrainer was made of plexiglass and restricted the movement of the rat to a minimum. The vehicle employed was as described above. The restrainers were placed in a cold environment (4°-7° C.) for 2 hr. The animals were sacrificed by cervical dislocation, the stomachs removed and the number of ulcers in the glandular portion of the stomach determined.

gastric acid secretion [4] = settings: Lee et al.; cited from earlier work
Gastric Acid Secretion [5] = assay: Basal gastric acid secretion in the Shay (pylorus-ligated) rat; type: in vivo, rat (female Sprague Dawley); settings: for Gastric Acid Output: mean ± S.E.; for ED50: Rattus norvegicus, gastric acid secretion; for basal gastric acid secretion (in words): rat
Experimental: Female Sprague Dawley rats (Canadian Breeding Laboratories; 160-180 g) were fasted for 48 hours before pyloric ligation. After the first 24 hours of fasting the animals were given access to 8% sucrose in 0.2% sodium chloride for 8 hours. Water was permitted ad libitum except during the 8 hour access to sucrose and after the drug treatment. The compounds were suspended in water with the aid of one drop of Tween 80 per 7 ml for oral or intraperitoneal administration. The pylorus was ligated under ether anesthesia and the sutured incision was covered with flexible collodion to prevent the animals from ingesting adhering blood. The stomachs were lavaged with 0.9% sodium chloride until the return solution was clear. Four hours after pyloric ligation, the animals were killed with diethyl ether and the gastric contents were collected in centrifuge tubes. The amount of acid in the centrifuged gastric juice was determined by titration against 0.1 N sodium hydroxide in a direct reading pH meter of pH 7.0.
Student's t test was used in the evaluation of the data. The ED50 's were obtained graphically by plotting the percent inhibition of gastric acid secretion versus the logarithm of the dose of the compound.

[6] = 2 mg/kg i.p., 15 min after oxotremorine
[7] = 2 mg/kg i.p., 30 min after oxotremorine
[8] = 5 mg/kg i.p., 15 min after oxotremorine
[9] = 5 mg/kg i.p., 30 min after oxotremorine
[10] = 25 mg/kg i.p., 15 min after oxotremorine
[11] = 25 mg/kg i.p., 30 min after oxotremorine
[12] = 100 mg/kg i.p., 15 min after oxotremorine
[13] = 100 mg/kg i.p., 30 min after oxotremorine

Structure (SMILES): CN1[C@@H]2CC[C@H]1C[C@@H](OC(=O)C(CO)c1ccccc1)C2 (some centres unmarked) [Atropine, reference compound]
- Temperature Before Oxotremorine ([1]; 2 mg/kg i.p.): 37.6 ± 0.2 °C
- Temperature after Oxotremorine ([1]; 2 mg/kg i.p., 15 min): 36.7 ± 0.4 °C
- Lacrimation (L) score [1, 6]: 0
- Salivation (S) score [1, 6]: 0
- Tremor (T) score [1, 6]: 0
- Temperature after Oxotremorine ([1]; 2 mg/kg i.p., 30 min): 35.7 ± 0.4 °C
- Lacrimation (L) score [1, 7]: 0
- Salivation (S) score [1, 7]: 0
- Tremor (T) score [1, 7]: 0
- Temperature Before Oxotremorine ([1]; 5 mg/kg i.p.): 37.2 ± 0.3 °C
- Temperature after Oxotremorine ([1]; 5 mg/kg i.p., 15 min): 36.9 ± 0.2 °C
- Lacrimation (L) score [1, 8]: 0
- Salivation (S) score [1, 8]: 0
- Tremor (T) score [1, 8]: 0.16
- Temperature after Oxotremorine ([1]; 5 mg/kg i.p., 30 min): 36.9 ± 0.3 °C
- Lacrimation (L) score [1, 9]: 0.16
- Salivation (S) score [1, 9]: 0
- Tremor (T) score [1, 9]: 0
- Ulcers Formed (% Inhibition) ([2]; 1 mg/kg p.o.): 47 % Inhibition
- Ulcers Formed ([2]; 1 mg/kg p.o.): 5.2 ± 1.5
- Ulcers Formed (% Inhibition) ([2]; 2 mg/kg p.o.): 85 % Inhibition
- Ulcers Formed ([2]; 2 mg/kg p.o.): 1.5 ± 0.8
- ED50 [2]: 1.1 mg/kg

Structure (SMILES): CN(C)CCCN1c2ccccc2CCc2ccccc21 [Imipramine, reference compound]
- Ulcers Formed (% Inhibition) ([3]; 1.25 mg/kg p.o.): 37 % Inhibition
- Ulcers Formed ([3]; 1.25 mg/kg p.o.): 4.1 ± 1.5
- Ulcers Formed (% Inhibition) ([3]; 2.5 mg/kg p.o.): 68 % Inhibition
- Ulcers Formed ([3]; 2.5 mg/kg p.o.): 2.1 ± 0.8
- Ulcers Formed (% Inhibition) ([3]; 5 mg/kg p.o.): 81 % Inhibition
- Ulcers Formed ([3]; 5 mg/kg p.o.): 1.2 ± 0.4
- ED50 [3]: 1.7 mg/kg

Structure (SMILES): COc1ccc2c(c1)c(CC(=O)O)c(C)n2C(=O)c1ccc(Cl)cc1 [Indomethacin]
- effect on gastric acid secretion (in words) (gastric acid secretion [4]): no effect on gastric acid secretion
- ulcer formation (in words) (gastric acid secretion [4]): induces ulcer formation

Structure (SMILES): CC(C)(O)CC1NC(=O)c2ccccc21 (centres unmarked) [Isoindol-1-one, 1,3-dihydro-3-(2-hydroxy-2-methylpropyl)-2H-isoindol-1-one]
- Gastric Acid Output (% Inhibition) (Gastric Acid Secretion [5]; 12 mg/kg i.p.): 18 % Inhibition
- Gastric Acid Output (Gastric Acid Secretion [5]; 12 mg/kg i.p.): 448 ± 59 μEg/4 hr
- Gastric Acid Output (% Inhibition) (Gastric Acid Secretion [5]; 25 mg/kg i.p.): 49 % Inhibition
- Gastric Acid Output (Gastric Acid Secretion [5]; 25 mg/kg i.p.): 275 ± 57 μEg/4 hr
- Gastric Acid Output (% Inhibition) (Gastric Acid Secretion [5]; 25 mg/kg p.o.): 48 % Inhibition
- Gastric Acid Output (Gastric Acid Secretion [5]; 25 mg/kg p.o.): 226 ± 48 μEq/4 hr
- Gastric Acid Output (% Inhibition) (Gastric Acid Secretion [5]; 50 mg/kg i.p.): 90 % Inhibition
- Gastric Acid Output (Gastric Acid Secretion [5]; 50 mg/kg i.p.): 56 ± 12 μEg/4 hr
- Gastric Acid Output (% Inhibition) (Gastric Acid Secretion [5]; 50 mg/kg p.o.): 65 % Inhibition
- Gastric Acid Output (Gastric Acid Secretion [5]; 50 mg/kg p.o.): 154 ± 33 μEq/4 hr
- Gastric Acid Output (% Inhibition) (Gastric Acid Secretion [5]; 100 mg/kg p.o.): 84 % Inhibition
- Gastric Acid Output (Gastric Acid Secretion [5]; 100 mg/kg p.o.): 71 ± 19 μEq/4 hr
- ED50 (Gastric Acid Secretion [5]; ip, intraperitoneal administration): 25 mg/kg
- ED50 (Gastric Acid Secretion [5]; oral administration): 28 mg/kg
- basal gastric acid secretion (in words) (Gastric Acid Secretion [5]; listed as 1,3-Dihydro-3-(2-hydroxy-2-methylpropyl)-2H-isoindol-1-one): inhibiting basal gastric acid secretion in the rat
- basal gastric acid secretion (in words) (Gastric Acid Secretion [5]; listed as 1,3-dihydro-3-(2-hydroxy-2-methylpropyl)-2H-isoindol-1-one): can inhibit gastric acid secretion
- Temperature Before Oxotremorine ([1]; 25 mg/kg i.p.): 36.7 ± 0.2 °C
- Temperature after Oxotremorine ([1]; 25 mg/kg i.p., 15 min): 31.4 ± 0.2 °C
- Lacrimation (L) score [1, 10]: 2.0
- Salivation (S) score [1, 10]: 2.0
- Tremor (T) score [1, 10]: 2.0
- Temperature after Oxotremorine ([1]; 25 mg/kg i.p., 30 min): 29.2 ± 0.2 °C
- Lacrimation (L) score [1, 11]: 2.0
- Salivation (S) score [1, 11]: 2.0
- Tremor (T) score [1, 11]: 2.0
- Temperature Before Oxotremorine ([1]; 100 mg/kg i.p.): 32.8 ± 0.2 °C
- Temperature after Oxotremorine ([1]; 100 mg/kg i.p., 15 min): 31.2 ± 0.1 °C
- Lacrimation (L) score [1, 12]: 0.7
- Salivation (S) score [1, 12]: 2.0
- Tremor (T) score [1, 12]: 2.0
- Temperature after Oxotremorine ([1]; 100 mg/kg i.p., 30 min): 30.5 ± 0.2 °C
- Lacrimation (L) score [1, 13]: 1.0
- Salivation (S) score [1, 13]: 2.0
- Tremor (T) score [1, 13]: 2.0
- anticholinergic activity (in words) ([1]; see Example 5): does not exhibit appreciable anticholineric activity
- Ulcers Formed (% Inhibition) ([2]; 25 mg/kg p.o.): 50 % Inhibition
- Ulcers Formed ([2]; 25 mg/kg p.o.): 4.9 ± 1.2
- Ulcers Formed (% Inhibition) ([2]; 50 mg/kg p.o.): 75 % Inhibition
- Ulcers Formed ([2]; 50 mg/kg p.o.): 2.4 ± 0.7
- Ulcers Formed (% Inhibition) ([2]; 100 mg/kg p.o.): 82 % Inhibition
- Ulcers Formed ([2]; 100 mg/kg p.o.): 1.8 ± 0.6
- ED50 [2]: 22 mg/kg
- indomethacin-induced ulcer formation (in words) ([2]; rat, orally or parenterally): inhibiting indomethacin-induced ulcer formation in the rat
- Ulcers Formed (% Inhibition) ([3]; 50 mg/kg p.o.): 40 % Inhibition
- Ulcers Formed ([3]; 50 mg/kg p.o.): 3.9 ± 1.2
- Ulcers Formed (% Inhibition) ([3]; 100 mg/kg p.o.): 55 % Inhibition
- Ulcers Formed ([3]; 100 mg/kg p.o.): 2.9 ± 0.5
- Ulcers Formed (% Inhibition) ([3]; 200 mg/kg p.o.): 69 % Inhibition
- Ulcers Formed ([3]; 200 mg/kg p.o.): 2.0 ± 0.8
- ED50 [3]: 80 mg/kg
- cold-restraint-induced ulcer formation (in words) ([3]; rat, orally or parenterally): cold-resistant-induced ulcer formation in the rat
